Results taken from patent publication US7420051B2, “Synthetic process for the manufacture of an ecteinaschidin compound” (Pharma Mar, S.A., priority 2000, dated 2008).

Assays:
Assay type in all cases: cell-based
CV-1 = assay: Cytotoxic activity screening, CV-1 cells; settings: Cercopithecidae
[1] = test system: P-388 (suspension culture of a lymphoid neoplasm from DBA/2 mouse); assay: Cytotoxic activity screening, P-388 cells; settings: Mus musculus, P388, 72 h, three days of incubation, approximate IC50
Procedure: (§1) Cell Cultures. Cells were maintained in logarithmic phase of growth in Eagle's Minimum Essential Medium, with Earle's Balanced Salts, with 2.0 mM L-glutamine, with non-essential amino acids, without sodium bicarbonate (EMEM/neaa); supplemented with 10% Fetal Calf Serum (FCS), 10^−2 M sodium bicarbonate and 0.1 g/l penicillin-G+streptomycin sulfate.
(§2) A simple screening procedure has been carried out to determine and compare the antitumour activity of these compounds, using an adapted form of the method described by Bergeron et al (1984). The tumour cell line employed have been P-388 (suspension culture of a lymphoid neoplasm from DBA/2 mouse), A-549 (monolayer culture of a human lung carcinoma), HT-29 (monolayer culture of a human colon carcinoma) and MEL-28 (monolayer culture of a human melanoma).
P-388 cell were seeded into 16 mm wells at 1×10^4 cells per well in 1 ml aliquots of MEM 5FCS containing the indicated concentration of drug. A separate set of cultures without drug was seeded as control growth to ensure that cells remained in exponential phase of growth. All determinations were carried out in duplicate.

[2] = test system: A-549 (monolayer culture of a human lung carcinoma); assay: Cytotoxic activity screening, A-549 cells; settings: Homo sapiens, A549, 72 h, three days of incubation, Crystal Violet, approximate IC50
Procedure: as §1, §2
(§3) A-549, HT-29 and MEL-28 were seeded into 16 mm wells at 2×10^4 cells per well in 1 ml aliquots of MEM 10FCS containing the indicated concentration of drug. A separate set of cultures without drug was seeded as control growth to ensure that cells remained in exponential phase of growth. All determinations were carried out in duplicate. After three days of incubation at 37° C., 10% CO2 in a 98% humid atmosphere, the wells were stained with 0.1% Crystal Violet. An approximately IC50 was determined by comparing the growth in wells with drug to the growth in wells control.

[3] = test system: MEL-28 (monolayer culture of a human melanoma); assay: Cytotoxic activity screening, MEL-28 cells; settings: SK-MEL-28, 72 h, three days of incubation, Crystal Violet, approximate IC50
Procedure: as §1, §2, §3

[4] = test system: HT-29 (monolayer culture of a human colon carcinoma); assay: Cytotoxic activity screening, HT-29 cells; settings: Homo sapiens, HT-29, 72 h, three days of incubation, Crystal Violet, approximate IC50
Procedure: as §1, §2, §3

DU-145 = assay: Cytotoxic activity screening, DU-145 cells; settings: Homo sapiens, DU-145, DU-145 cells

SMILES	IC50 (CV-1) [µM]	IC50 [1] [µM]	IC50 [2] [µM]	IC50 [3] [µM]	IC50 [4] [µM]	IC50 (DU-145) [µM]
COC1=C(C)C(=O)C2=C(C1=O)[C@H](CNC(=O)C(C)N)N1C(C2)[C@H]2c3c(cc(C)c(OC)c3O)C[C@@H]([C@@H]1C#N)N2C (some centres unmarked)	0.023	0.009	0.018	0.018	0.018	–
C=CCOc1c(C)c2c(c3c1CC1[C@H]4c5c(cc(C)c(OC)c5O)C[C@@H]([C@H](C#N)N1[C@H]3CNC(=O)OCC(Cl)(Cl)Cl)N4C)OCO2 (some centres unmarked)	0.014	–	–	–	–	0.014
C=CCOc1c(C)c2c(c3c1CC1[C@H]4c5c(cc(C)c(OC)c5OCOC)C[C@@H]([C@H](C#N)N1[C@H]3CNC(=O)OCC(Cl)(Cl)Cl)N4C)OCO2 (some centres unmarked)	0.13	–	–	–	–	0.13
COCOc1c(OC)c(C)cc2c1[C@@H]1C3Cc4c(OC(C)=O)c(C)c5c(c4[C@H](CNC(=O)[C@H](C)NC(=O)OC(C)(C)C)N3[C@@H](C#N)[C@H](C2)N1C)OCO5 (some centres unmarked)	–	0.13	0.13	0.13	0.13	0.13
COc1c(C)cc2c(c1O)[C@@H]1C3Cc4c(OC(C)=O)c(C)c5c(c4[C@H](CNC(=O)[C@H](C)N)N3[C@@H](C#N)[C@H](C2)N1C)OCO5 (some centres unmarked)	–	0.008	0.016	0.008	0.008	0.016
COc1c(C)cc2c(c1O)[C@@H]1C3Cc4c(OC(C)=O)c(C)c5c(c4[C@H](CNC(=O)[C@H](C)NC(=S)Nc4ccccc4)N3[C@@H](C#N)[C@H](C2)N1C)OCO5 (some centres unmarked)	–	0.001	0.001	0.001	0.001	0.001
COc1c(C)cc2c(c1O)[C@@H]1C3Cc4c(OC(C)=O)c(C)c5c(c4[C@H](CN)N3[C@@H](C#N)[C@H](C2)N1C)OCO5 (some centres unmarked)	–	0.01	0.01	0.01	0.01	0.01
COC1=C(C)C(=O)C2=C(C1=O)[C@H](CNC(=O)C(C)N=CSNc1ccccc1)N1C(C2)[C@H]2c3c(cc(C)c(OC)c3O)C[C@@H]([C@@H]1C#N)N2C (some centres unmarked)	0.018	0.015	0.015	0.015	0.015	–
COCOc1c(OC)c(C)cc2c1[C@@H]1C3CC4=C(C(=O)C(OC)=C(C)C4=O)[C@H](CNC(C)=O)N3[C@@H](C#N)[C@H](C2)N1C (some centres unmarked)	0.22	–	–	–	–	–
COCOc1c(OC)c(C)cc2c1[C@@H]1C3CC4=C(C(=O)C(O)=C(C)C4=O)[C@H](CNC(C)=O)N3[C@@H](C#N)[C@H](C2)N1C (some centres unmarked)	> 18.1	> 9	> 18.1	> 18.1	> 18.1	–
COCOc1c(OC)c(C)cc2c1[C@@H]1C3Cc4c(O)c(C)c5c(c4[C@H](CNC(C)=O)N3[C@@H](C#N)[C@H](C2)N1C)OCO5 (some centres unmarked)	–	> 1.77	> 1.77	> 1.77	> 1.77	> 1.77
C=CCOc1c(C)c2c(c3c1CC1[C@H]4c5c(cc(C)c(OC)c5OCOC)C[C@@H]([C@H](C#N)N1[C@H]3CNC(C)=O)N4C)OCO2 (some centres unmarked)	–	> 1.65	> 1.65	> 1.65	> 1.65	> 1.65
COCOc1c(OC)c(C)cc2c1[C@@H]1C3Cc4c(OC(C)=O)c(C)c5c(c4[C@H](CNC(C)=O)N3[C@@H](C#N)[C@H](C2)N1C)OCO5 (some centres unmarked)	–	0.016	0.016	0.016	0.016	0.016
COc1c(C)cc2c(c1O)[C@@H]1C3Cc4c(OC(C)=O)c(C)c5c(c4[C@H](CNC(C)=O)N3[C@@H](C#N)[C@H](C2)N1C)OCO5 (some centres unmarked)	–	0.001	0.001	0.001	0.001	0.001
C/C=C(\OC(C)=O)C1=C(C2=COCO2)[C@H](CNC(=O)CCCC)N2C(C1)[C@H]1c3c(cc(C)c(OC)c3O)C[C@@H]([C@@H]2C#N)N1C (some centres unmarked)	–	0.007	0.007	0.007	0.007	0.007
